Literature values as cited in PMC9177108 (The Oncologist, 2022).
Where two headings read alike, the source gives them in different places.

Tested on: patients with advanced solid tumors
Settings: cited from earlier work

## CNC(=O)c1cccc2cc(Oc3ccnc4cc(OCC5(N)CC5)c(OC)cc34)ccc12 [Lucitanib]
Continuous 15 mg daily dose, arterial hypertension
  tolerability of continuous dosing: unsustainable beyond three cycles
Patients with FGF-aberrant (FGFR1- or FGF3/4/19-amplified) breast cancer
  partial response / ORR: 50%
Patients with FGF-aberrant breast cancer
  median PFS: 40.4 weeks
Patients with angiogenesis-sensitive disease
  median PFS: 25 weeks
